# Measured values from ChEMBL document CHEMBL5505982, “Design, synthesis, biological evaluation and in silico studies of novel quinoline derivatives as potential radioprotective molecules targeting the TLR2 and p53 pathways” (Eur J Med Chem, 2024).
# pIC50: −log10 of the molar value. The source made the active and inactive calls. No cut-off for these calls is given here.
# Legend:
# [1] = tested on: Mus musculus; test: Radioprotective activity in irradiated C57BL/6J mouse model assessed as increase in HGB count at 300 mg/kg, ip preincubated with compound for 15 to 1440 mins followed by irradiation with 6.5 Gy and measured after 1 to 10 days of radiation; assay type: functional, organism-based
# [2] = tested on: Mus musculus; test: Radioprotective activity against radiation-induced intestinal injury C57BL/6J mouse model assessed as increase in splenic index at 300 mg/kg, ip preincubated with compound for 15 to 1440 mins followed by irradiation with 13 Gy and measured after 84 hrs of radiation by H and E staining based analysis; assay type: functional, organism-based; details: time 15-6480 min
# [3] = tested on: AHH-1; test: Radioprotective activity against human AHH-1 cells assessed as decrease in p53 expression pretreated with compound for 24 hrs in presence of ionizing irradiation by Western blotting analysis; assay type: functional, cell-based
# [4] = tested on: AHH-1; test: Induction of apoptosis in human AHH-1 cells assessed as viable cells preincubated with compound for 24 hrs followed by irradiation with 6 Gy and measured after 24 hrs of radiation by Annexin V-FITC/PI staining based flow cytometry analysis (reference value: 52.3%); assay type: functional; details: time 48 hrs
# [5] = tested on: AHH-1; test: Induction of apoptosis in human AHH-1 cells assessed as late apoptotic cells preincubated with compound for 24 hrs followed by irradiation with 4 Gy and measured after 24 hrs of radiation by Annexin V-FITC/PI staining based flow cytometry analysis (reference value: 17.7%); assay type: functional; details: time 48 hrs
# [6] = molecular target: T1, Toll-like receptor 2 (Homo sapiens, UniProt O60603); test: Agonist activity at TLR2 in human HUVEC cells assessed as increase in p65 level pretreated with compound for 24 hrs in presence of ionizing irradiation by Western blotting analysis; assay type: cell-based; details: filed as agonist
# T1 sequence (O60603 whole entry): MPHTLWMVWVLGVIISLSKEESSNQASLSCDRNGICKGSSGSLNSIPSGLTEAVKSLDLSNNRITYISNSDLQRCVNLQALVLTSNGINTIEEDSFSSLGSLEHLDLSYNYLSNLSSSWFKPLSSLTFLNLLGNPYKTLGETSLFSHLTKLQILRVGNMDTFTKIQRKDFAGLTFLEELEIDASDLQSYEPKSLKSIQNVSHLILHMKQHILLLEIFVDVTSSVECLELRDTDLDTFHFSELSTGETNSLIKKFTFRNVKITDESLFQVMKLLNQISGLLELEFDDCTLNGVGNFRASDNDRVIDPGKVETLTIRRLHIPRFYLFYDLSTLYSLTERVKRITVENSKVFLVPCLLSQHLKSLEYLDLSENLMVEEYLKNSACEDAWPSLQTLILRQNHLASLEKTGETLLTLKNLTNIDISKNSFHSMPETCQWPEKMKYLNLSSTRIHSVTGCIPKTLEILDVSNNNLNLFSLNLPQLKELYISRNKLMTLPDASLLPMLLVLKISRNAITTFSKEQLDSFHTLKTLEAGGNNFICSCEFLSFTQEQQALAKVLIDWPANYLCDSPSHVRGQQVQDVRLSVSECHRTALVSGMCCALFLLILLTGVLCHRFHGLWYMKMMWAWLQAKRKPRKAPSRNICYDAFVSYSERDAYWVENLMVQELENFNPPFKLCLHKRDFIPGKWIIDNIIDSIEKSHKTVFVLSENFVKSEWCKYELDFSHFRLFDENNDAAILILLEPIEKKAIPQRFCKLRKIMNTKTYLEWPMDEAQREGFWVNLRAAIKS
# [7] = tested on: Mus musculus; test: Radioprotective activity in C57BL/6J mouse assessed as increase in WBC count at 300 mg/kg, ip preincubated with compound for 15 to 1440 mins followed by irradiation at 6.5 Gy and measured at 1 to 10 days relative to Ex/RAD/control; assay type: functional, organism-based
# [8] = tested on: Mus musculus; test: Radioprotective activity in C57BL/6J mouse model assessed as upregulation of IL-6 expression at 300 mg/kg, ip measured after 2 hrs of 7.5 Gy radiation by ELISA analysis; assay type: functional, organism-based
# [9] = tested on: AHH-1; test: Radioprotective activity against radiation-induced DNA damage in human AHH-1 cells assessed as reduction in gamma-H2AX foci in nucleus preincubated with compound for 24 hrs followed by irradiation with 1.175 Gy/min and measured after 2 hrs of radiation by fluorescence microscopic analysis; assay type: functional, cell-based; details: time 26.0 hrs
# [10] = molecular target: T1, Toll-like receptor 2; test: Agonist activity at TLR2 in human HUVEC cells assessed as increase in MyD88 level pretreated with compound for 24 hrs in presence of ionizing irradiation by Western blotting analysis; assay type: cell-based; details: filed as agonist
# [11] = tested on: Mus musculus; test: Radioprotective activity in irradiated C57BL/6J mouse model assessed as increase in platelets count at 300 mg/kg, ip preincubated with compound for 15 to 1440 mins followed by irradiation with 6.5 Gy and measured after 2 days of radiation; assay type: functional, organism-based; details: time 15-4320 min
# [12] = tested on: AHH-1; test: Induction of apoptosis in human AHH-1 cells assessed as necrotic cells preincubated with compound for 24 hrs followed by irradiation with 8 Gy and measured after 24 hrs of radiation by Annexin V-FITC/PI staining based flow cytometry analysis (reference value: 4.86%); assay type: functional; details: time 48 hrs
# [13] = tested on: AHH-1; test: Induction of apoptosis in human AHH-1 cells assessed as viable cells preincubated with compound for 24 hrs followed by irradiation with 8 Gy and measured after 24 hrs of radiation by Annexin V-FITC/PI staining based flow cytometry analysis (reference value: 45.1%); assay type: functional; details: time 48 hrs
# [14] = tested on: Mus musculus; test: Radioprotective activity in irradiated C57BL/6J mouse model assessed as increase in platelets count at 300 mg/kg, ip preincubated with compound for 15 to 1440 mins followed by irradiation with 6.5 Gy and measured after 14 days of radiation relative to Ex-rad/control; assay type: functional, organism-based; details: time 15-21600 min
# [15] = tested on: Mus musculus; test: Radioprotective activity against radiation-induced intestinal injury C57BL/6J mouse model assessed as increase in number of crypt foci at 300 mg/kg, ip preincubated with compound for 15 to 1440 mins followed by irradiation with 13 Gy and measured after 84 hrs of radiation by H and E staining based analysis; assay type: functional, organism-based; details: time 15-6480 min
# [16] = tested on: Mus musculus; test: Radioprotective activity in C57BL/6J mouse model assessed as upregulation of IL-12 expression at 300 mg/kg, ip measured after 2 hrs of 7.5 Gy radiation by ELISA analysis; assay type: functional, organism-based
# [17] = tested on: AHH-1; test: Induction of apoptosis in human AHH-1 cells assessed as early apoptotic cells preincubated with compound for 24 hrs followed by irradiation with 6 Gy and measured after 24 hrs of radiation by Annexin V-FITC/PI staining based flow cytometry analysis (reference value: 14.1%); assay type: functional; details: time 48 hrs
# [18] = tested on: Mus musculus; test: Radioprotective activity in C57BL/6J mouse assessed as survival rate at 30 mg/kg, ip preincubated with compound for 15 to 1440 mins followed by irradiation and measured at day 30; assay type: functional; details: light or radiation study, time 15-44640 min
# [19] = tested on: Mus musculus; test: Radioprotective activity in irradiated C57BL/6J mouse model assessed as increase in HGB count at 300 mg/kg, ip preincubated with compound for 15 to 1440 mins followed by irradiation with 6.5 Gy and measured after 13 days of radiation; assay type: functional, organism-based; details: time 15-20160 min
# [20] = tested on: Mus musculus; test: Radioprotective activity in irradiated C57BL/6J mouse model assessed as increase in WBC count at 300 mg/kg, ip preincubated with compound for 15 to 1440 mins followed by irradiation with 6.5 Gy and measured on day 1 (reference value: 43.39%); assay type: functional; details: time 15-2880 min
# [21] = tested on: AHH-1; test: Cytotoxicity against human AHH-1 cells assessed as inhibition of cell growth incubated for 24 hrs by CCK-8 assay; assay type: functional, cell-based; details: AHH-1, 24 h
# [22] = tested on: Mus musculus; test: Radioprotective activity in C57BL/6J mouse model assessed as upregulation of G-CSF expression at 300 mg/kg, ip measured after 2 hrs of 7.5 Gy radiation by ELISA analysis; assay type: functional, organism-based
# [23] = tested on: Mus musculus; test: Radioprotective activity in C57BL/6J mouse assessed as increase in body weight at 30 mg/kg, ip preincubated with compound for 15 to 1440 mins followed by irradiation and measured after 10, 14, 18, 22 and 30 days; assay type: functional, organism-based; details: time 15-44640 min
# [24] = tested on: AHH-1; test: Radioprotective activity against human AHH-1 cells assessed as decrease in Bax expression pretreated with compound for 24 hrs in presence of ionizing irradiation by Western blotting analysis; assay type: functional, cell-based
# [25] = tested on: Mus musculus; test: Radioprotective activity against radiation-induced intestinal injury C57BL/6J mouse model assessed as increase in villi length at 300 mg/kg, ip preincubated with compound for 15 to 1440 mins followed by irradiation with 13 Gy and measured after 84 hrs of radiation by H and E staining based analysis; assay type: functional, organism-based; details: time 15-6480 min
# [26] = tested on: Mus musculus; test: Radioprotective activity in irradiated C57BL/6J mouse model assessed as increase in RBC count at 300 mg/kg, ip preincubated with compound for 15 to 1440 mins followed by irradiation with 6.5 Gy and measured after 10 to 13 days of radiation; assay type: functional, organism-based; details: Erythrocyte
# [27] = tested on: AHH-1; test: Induction of apoptosis in human AHH-1 cells assessed as early apoptotic cells preincubated with compound for 24 hrs followed by irradiation with 8 Gy and measured after 24 hrs of radiation by Annexin V-FITC/PI staining based flow cytometry analysis (reference value: 16.5%); assay type: functional; details: time 48 hrs
structure (smiles),measurement,setting,value
[O-][S+](Cc1ccc(F)cc1)c1ccc2cc(Br)ccc2n1 (configuration not stated),Activity,[1],inactive
same,Activity,[2],Active
same,Activity,[3],Active
same,Activity,[4],67.6%
same,Activity,[5],12.2%
same,Activity,[6],Active
same,Activity,[7],Active
same,Activity,[8],Active
same,Activity,[9],Active
same,Activity,[10],Active
same,Activity,[11],Active
same,Activity,[12],4%
same,Activity,[13],67.3%
same,Activity,[14],Active
same,Activity,[15],Active
same,Activity,[16],Active
same,Activity,[17],13.7%
same,survival at 30 mg/kg,[18],80%
same,Activity,[19],Active
same,Activity,[20],38.66%
same,pIC50,[21],3.81
same,Activity,[22],Active
same,Activity,[23],Active
same,Activity,[24],Active
same,Activity,[25],Active
same,Activity,[26],Active
same,Activity,[27],10.8%
